These results are taken from patent US20180000771A1, “AGENT FOR PREVENTING AND/OR TREATING AMYOTROPHIC LATERAL SCLEROSIS” (KYOTO UNIVERSITY, priority 2015, published 2018).

Counter-ions that a name gives are not always drawn.

In one test the test system is motoneuron cells derived from iPS cells having SOD1-L144FVX mutation. The test can be described thus: survival of motoneuron cells induced from ALS patient iPS cells (SOD1 mutation). The following applies: FIG. 2, FIG. 6.
Turning to `CC(O)CC(=O)O` (racemic) [3-hydroxybutyric acid], the “dose correlation in the protection effect on motoneuron cell having SOD1 mutation” value was “increase in the effect in a dose-dependent manner”.

On to `CCNC(=O)CCC/C=C\C[C@@H]1[C@@H](/C=C/[C@@H](O)CCc2ccccc2)[C@H](O)C[C@@H]1O` [Bimatoprost], for which the “dose correlation in the protection effect on motoneuron cell having SOD1 mutation” value is given as “increase in the effect in a dose-dependent manner”.

The test is the same for the next values; noted with them: SOD1-L144FVX motoneuron cells contacted with medicament for 7 days; negative control DMSO.
As to `Cc1c(C)c2c(c(C)c1O)CC[C@@](C)(CCC[C@H](C)CCC[C@H](C)CCCC(C)C)O2` [alpha- TOCHOPHEROL, alpha-TOCHOPHEROL], the “MN index (motoneuron cell survival number ratio as compared to negative control)” value turned out to be 9.46. `CCOc1ccn(-c2ccc(F)cc2)c(=O)c1C(=O)Nc1ccc(Oc2ccnc(N)c2Cl)c(F)c1` [BMS 777607]: the “MN index (motoneuron cell survival number ratio as compared to negative control)” value was 8.55.

Take `Cc1ccc(Nc2nccc(N(C)c3ccc4c(C)n(C)nc4c3)n2)cc1S(N)(=O)=O` [Pazopanib Hydrochloride]: the “MN index (motoneuron cell survival number ratio as compared to negative control)” value was 9.53.

For `O=C(c1ccc(/C=C/c2n[nH]c3ccccc23)cc1)N1CCNCC1` [KW 2449], the “MN index (motoneuron cell survival number ratio as compared to negative control)” value is 7.72. For `Cn1cnc(-c2cc3nccc(Oc4ccc(NC(=S)NC(=O)Cc5ccccc5)cc4F)c3s2)c1` [MGCD-265], the “MN index (motoneuron cell survival number ratio as compared to negative control)” value came to 7.62. On to Bosutinib [Bosutinib (SKI-606)], for which the “MN index (motoneuron cell survival number ratio as compared to negative control)” value amounted to 7.20. As for `NCCNc1ncc(C(N)=O)c(Nc2cccc(C(F)(F)F)c2)n1` [Syk Inhibitor II], the “MN index (motoneuron cell survival number ratio as compared to negative control)” value is given as 7.59.

For Sunitinib Malate, the “MN index (motoneuron cell survival number ratio as compared to negative control)” value is listed as 8.13.

For `COc1ccc2c(c1OC)C(=O)OC2C1c2cc3c(cc2CCN1C)OCO3` [HYDRASTINE (1R,9S)], the “MN index (motoneuron cell survival number ratio as compared to negative control)” value stood at 7.53. As to `O=C1Nc2ccccc2/C1=C1/Nc2ccccc2/C1=N\O` [Indirubin-3′-monoxime], the “MN index (motoneuron cell survival number ratio as compared to negative control)” value was found to be 7.54. The same measure, in the same setting: the figure for `CN1CCc2cccc3c2[C@H]1Cc1ccc(O)c(O)c1-3` [APOMORPHINE HYDROCHLORIDE, APOMORPHINE] is 7.26. With `Cc1cc2nc3c(=O)[nH]c(=O)nc-3n(C[C@H](O)[C@H](O)[C@H](O)CO)c2cc1C` [RIBOFLAVIN], the “MN index (motoneuron cell survival number ratio as compared to negative control)” value worked out at 9.55. As to `Cc1cc(Nc2cc(N3CCN(C)CC3)nc(Sc3ccc(NC(=O)C4CC4)cc3)n2)n[nH]1` [VX-680, tozasertib], the “MN index (motoneuron cell survival number ratio as compared to negative control)” value came out at 9.58.

`O=C1NC(=O)c2c1c(-c1ccccc1Cl)cc1[nH]c3ccc(O)cc3c21` [Weel Inhibitor]: the “MN index (motoneuron cell survival number ratio as compared to negative control)” value was determined as 7.18. For `O=C(/C=C/C=C/c1ccc2c(c1)OCO2)N1CCCCC1` [PIPERINE], the “MN index (motoneuron cell survival number ratio as compared to negative control)” value is recorded as 7.39.

Turning to `CC1(C)O[C@@H]2C[C@H]3[C@@H]4C[C@H](F)C5=CC(=O)C=C[C@]5(C)[C@H]4[C@@H](O)C[C@]3(C)[C@]2(C(=O)CO)O1` [FLUNISOLIDE], the “MN index (motoneuron cell survival number ratio as compared to negative control)” value was found to be 7.86. `CCCCOC(=O)c1ccc(N)cc1` [BUTAMBEN]: the “MN index (motoneuron cell survival number ratio as compared to negative control)” value was 7.39.

On to `O=C1c2ccccc2-c2n[nH]c3cccc1c23` [SP600125], for which the “MN index (motoneuron cell survival number ratio as compared to negative control)” value was 8.38.

The test is the same for the next values; noted with them: familial ALS (mSOD1 ALS) motoneuron cells; 0, 0.01, 0.1, 1, 10 μM; n=6, p<0.05; FIG. 7.
Consider `Cc1cn(-c2cc(NC(=O)c3ccc(C)c(Nc4nccc(-c5cccnc5)n4)c3)cc(C(F)(F)F)c2)cn1` [Nilotinib], for which the “survival of motor neuron” value is “increased survival of motor neuron”. For the compound `CNC(=O)c1cc(Oc2ccc(NC(=O)Nc3cc(C(C)(C)C)nn3-c3ccc4ncccc4c3)c(F)c2)ccn1` [Rebastinib], the “survival of motor neuron” value is “increased survival of motor neuron”. `O=C(Nc1c[nH]nc1-c1nc2cc(CN3CCOCC3)ccc2[nH]1)NC1CC1` [AT9283]: the “survival of motor neuron” value was “increased survival of motor neuron”.
